Data: US11613558B2, “Peptides and pharmaceutical compositions for treating eye diseases” (Yuyu Pharma, Inc., priority 2018, dated 2023)
Where a name gives a salt, the structure may show the parent alone. Numbered stars: 1 amine (or outer) side, 2 acyl side, 3 side chain; on linkers, the order of the positions; unused ones are H or OH. Square brackets hold non-standard residues; d marks the D form. Peptide text beside a SMILES is read from it. X2 = C[C@@H]1CC[C@@H](C(=O)[*:2])N1[*:1]; d(cisHyp) = O=C(O)[C@H]1C[C@@H](O)CN1; Hyp = O=C(O)[C@@H]1C[C@@H](O)CN1; dHyp = O=C(O)[C@H]1C[C@H](O)CN1

Experiments:
[1] = test system: human primary corneal epithelial cells; test: Cell growth rate of human primary corneal epithelial cells (CellTiter-Glo); assay type: cell-based; conditions: 48 hours and 72 hours
Experimental: In order to confirm whether the YDE derivatives could recover corneal damage, the cellular growth rate of human primary corneal epithelial cells was checked.
Specifically, primary corneal epithelial cells (ATCC, ATCC PCS-700-010) were seeded on a 96-well culture plate (Perkin Elmer, 6005680) containing the Corneal Epithelial Cell Basal Medium (ATCC, ATCC PCS-700-030) in the Corneal Epithelial Cell Growth Kit (ATCC, ATCC PCS-700-040) in an amount of 5×10^3 cells per well, which was then cultured for 24 hours under the conditions of 37° C. and 5% CO2.
YDE-001 to YDE-075 were each dissolved in 100% DMSO (Sigma, D2660) to a concentration of 10 mM, which was then diluted with 100% DMSO to a concentration of the compound of 6, 1.9, 0.6, 0.2, 0.06, 0.02, 0.006, and 0.002 mM. 20 μl of the diluted YDE derivative was added to a 96-well microplate (Greiner Bio-One, 651201) containing 380 μl of the Corneal Epithelial Cell Basal Medium such that the concentration of DMSO was diluted to 5%.
After 24 hours, 20 μl of each of the YDE derivatives diluted in the 96-well microplate was added to the 96-well culture plate containing the cells. As a control group, hEGF (Sigma, E9644) was treated at the same concentration as the YDE derivatives. The cells treated with the YDE-derivatives or hEGF were cultured for 48 hours and 72 hours under the conditions of 37° C. and 5% CO2 (FIGS. 18 to 25).
The cultured cells were treated with the CellTiter-Glo luminescent reagent (Promega, G7573) according to the manufacturer's instructions and reacted for 30 minutes at room temperature. Thereafter, the fluorescent signal (or luminescence signal) was checked using an Envision 2014 Multi-label plate reader. The measured values were normalized using a vehicle control (100% proliferation cell).

[2] = test system: rats with dry eye syndrome (extraorbital lacrimal gland excision, ELGE); test: Amount of tear secretion (Schirmer test, cobalt chloride paper) in ELGE rats with dry eye syndrome; assay type: in vivo, rat; conditions: Table 4, study of YDE-001 to YDE-028, ELGE rats, 3 mg/ml, 5 μl/eye twice daily
Summary of the method: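 Dry eye induced in male Sprague-Dawley rats by extraorbital lacrimal gland excision; sham-operated controls. From 7 days post-surgery, 3 mg/ml test compounds in saline given topically at 5 μl/eye twice daily for 14 days. Tear secretion measured on days 7 and 14 as wetted length of cobalt chloride paper held 60 s in the lateral canthus.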

[3] = test system: cornea of rats with dry eye syndrome (ELGE); test: Corneal permeability of fluorescent dye (corneal damage) in ELGE rats with dry eye syndrome; assay type: in vivo, rat; conditions: Table 6, study of YDE-001 to YDE-028, 3 mg/ml, 5 μl/eye twice daily, day 14
Summary of the method: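 Dry eye induced in male Sprague-Dawley rats by extraorbital lacrimal gland excision; from day 7, 3 mg/ml compound in saline given at 5 μl/eye twice daily. After 14 doses, rats anaesthetized (Zolethyl 25 mg/kg ip), 1% fluorescein applied 1 h, and corneal staining read 12-24 h later by slit-lamp under blue light.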

[4] = Stability in aqueous solution under long-term storage conditions (related substances); assay type: physicochemical; conditions: 25° C., 75% RH
Summary of the method: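 Test substances dissolved in water at 1 mg/ml, sealed in glass vials and held at 25° C./75% RH. Related substances measured at 1, 2, 4, 8 and 12 weeks.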

Structure (SMILES)	Cell proliferation rate (in words) [1]	Tear Volumes, Day 7 ([2]; day 7 of administration) [mm^3]	Tear Volumes, Day 14 ([2]; day 14 of administration) [mm^3]	Permeability of fluorescent dye [3] [%]	Amount of related substances (after 12 weeks) [4] [%]
CC(C)C[C@H](NC(=O)CNC(=O)[C@H](CC(C)C)NC(=O)[C@H](CCC(N)=O)NC(=O)CNC(=O)[C@@H]1CC[C@@H](C)N1)C(=O)N[C@@H](C)C(=O)NCC(=O)N1CCC[C@H]1C(=O)N[C@@H](CCCCN)C(=O)O [YDE-045] (H-[X2]GQLGLAGPK-OH)	high cell proliferation rate				
CC(C)C[C@H](NC(=O)CNC(=O)[C@H](CC(C)C)NC(=O)[C@H](CCC(N)=O)NC(=O)CNC(=O)[C@@H]1C[C@@H](O)CN1)C(=O)N[C@@H](C)C(=O)NCC(=O)N1CCC[C@H]1C(=O)N[C@@H](CCCCN)C(=O)O [YDE-011, H-Hyp-Gly-Gln-Leu-Gly-Leu-Ala-Gly-Pro-Lys-OH AcOH salt] (H-[Hyp]GQLGLAGPK-OH)	high cell proliferation rate	4.22 ± 1.45	6.16 ± 2.16	18.11 ± 11.61	3.83
CC(C)C[C@@H](NC(=O)CNC(=O)[C@@H](CC(C)C)NC(=O)[C@@H](CCC(N)=O)NC(=O)CNC(=O)[C@H]1C[C@@H](O)CN1)C(=O)N[C@H](C)C(=O)NCC(=O)N1CCC[C@@H]1C(=O)N[C@H](CCCCN)C(=O)O [YDE-060] (H-[d(cisHyp)]G[dQ][dL]G[dL][dA]G[dP][dK]-OH)	high cell proliferation rate				
CC(C)C[C@H](NC(=O)CNC(=O)[C@H](CC(C)C)NC(=O)[C@H](CCC(N)=O)NC(=O)CNC(=O)[C@H]1C[C@H](O)CN1)C(=O)N[C@@H](C)C(=O)NCC(=O)N1CCC[C@H]1C(=O)N[C@@H](CCCCN)C(=O)O [YDE-057] (H-[dHyp]GQLGLAGPK-OH)	high cell proliferation rate				
